For 1 molecule, Km results are on record in publication PMC10888103, “Enhanced High-Fructose Corn Syrup Production: Immobilizing Serratia marcescens Glucose Isomerase on MOF (Co)-525 Reduces Co^2+ Dependency in Glucose Isomerization to Fructose” (Foods, 2024).

The assay has as its system T1, Serratia marcescens glucose isomerase (SmGI).
T1 construct: gene xylA; native, from S. marcescens lysate; 70 °C heat step and 10 kD ultrafiltration only (no chromatography); main SDS-PAGE band about 60 kD
Briefly: fructose formation by fructose assay kit, Lineweaver-Burk; heat-treated, ultrafiltered extract. Particulars: free enzyme, no added Co2+; 60 °C, 1 h; glucose 2.5-400 mM; pH of kinetic assay not stated. The class given is biochemical. The source says: fructose formation by fructose assay kit, Lineweaver-Burk; heat-treated, ultrafiltered extract on Serratia marcescens glucose isomerase (SmGI)

A word on the Km: it is the substrate concentration at which the rate is half of its maximum. Consider `OC[C@H]1OC(O)[C@H](O)[C@@H](O)[C@@H]1O` (stereo partly shown) [glucose], for which the Km is 44.3 ± 3.1 mM.
